Data on nine molecules can be found in ChEMBL document CHEMBL1909046, “DrugMatrix in vitro pharmacology data”.

Series [1] can be described thus: DRUGMATRIX: Glutamate, Kainate radioligand binding (ligand: [3H] Kainic acid). It is filed as cell membranes, Rattus norvegicus, Wistar, Brain, Membrane. Conditions: Not Active = under 50% inhibition at 10 µM.
Series [2] deals with T1, Cytochrome P450 1A2 (Homo sapiens, UniProt P05177).
T1 sequence (P05177 whole entry): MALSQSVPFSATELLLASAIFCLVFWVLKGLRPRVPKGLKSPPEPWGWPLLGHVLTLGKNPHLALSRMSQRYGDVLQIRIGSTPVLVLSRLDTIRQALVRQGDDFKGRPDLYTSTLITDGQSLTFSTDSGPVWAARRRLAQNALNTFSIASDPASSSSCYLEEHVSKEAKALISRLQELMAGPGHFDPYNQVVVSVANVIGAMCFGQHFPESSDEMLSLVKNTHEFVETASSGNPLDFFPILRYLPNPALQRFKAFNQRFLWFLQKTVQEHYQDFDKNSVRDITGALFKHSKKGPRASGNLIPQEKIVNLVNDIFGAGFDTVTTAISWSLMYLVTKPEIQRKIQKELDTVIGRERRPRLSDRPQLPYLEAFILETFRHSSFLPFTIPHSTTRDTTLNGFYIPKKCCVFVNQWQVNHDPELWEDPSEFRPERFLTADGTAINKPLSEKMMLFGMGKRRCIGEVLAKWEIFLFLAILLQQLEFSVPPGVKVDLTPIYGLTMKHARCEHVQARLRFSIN
Conditions: bti-tn-5b1-4.

In series [3] the target is Cytochrome P450 2D6 (Homo sapiens, UniProt P10635). Conditions: bti-tn-5b1-4. Note: in other assays of this panel Not Active means under 50% inhibition at 10 µM.
Cytochrome P450 2D6, sequence (P10635 whole entry): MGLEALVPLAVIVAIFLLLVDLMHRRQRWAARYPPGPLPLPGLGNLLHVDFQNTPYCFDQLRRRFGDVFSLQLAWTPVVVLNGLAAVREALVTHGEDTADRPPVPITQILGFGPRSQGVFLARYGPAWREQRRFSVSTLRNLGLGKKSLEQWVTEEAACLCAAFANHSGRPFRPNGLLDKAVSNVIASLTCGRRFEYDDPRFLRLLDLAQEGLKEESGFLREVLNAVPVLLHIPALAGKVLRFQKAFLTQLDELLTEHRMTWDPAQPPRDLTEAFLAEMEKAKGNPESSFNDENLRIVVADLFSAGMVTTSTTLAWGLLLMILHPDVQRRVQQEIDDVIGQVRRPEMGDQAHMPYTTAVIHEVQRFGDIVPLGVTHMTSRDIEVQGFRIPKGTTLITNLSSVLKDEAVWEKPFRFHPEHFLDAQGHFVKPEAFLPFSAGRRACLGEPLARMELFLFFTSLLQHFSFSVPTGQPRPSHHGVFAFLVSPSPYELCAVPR
Series [4] deals with T2, Adenosine receptor A1 (Homo sapiens, UniProt P30542).
T2 sequence (P30542 whole entry): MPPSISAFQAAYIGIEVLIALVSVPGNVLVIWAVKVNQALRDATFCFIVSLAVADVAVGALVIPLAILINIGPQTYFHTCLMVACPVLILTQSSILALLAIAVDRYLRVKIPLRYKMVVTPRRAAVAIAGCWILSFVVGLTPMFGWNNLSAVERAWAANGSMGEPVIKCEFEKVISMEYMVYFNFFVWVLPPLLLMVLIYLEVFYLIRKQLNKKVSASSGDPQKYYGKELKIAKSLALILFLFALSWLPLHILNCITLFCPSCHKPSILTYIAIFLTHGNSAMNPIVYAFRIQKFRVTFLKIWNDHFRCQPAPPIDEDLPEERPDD
It is filed as cell membranes, Membrane. The settings on record: cho.

A short description of series [5]: DRUGMATRIX: Calcium Channel Type L, Dihydropyridine radioligand binding (ligand: [3H] Nitrendipine). Format: cell membranes, Rattus norvegicus, Wistar, Cerebral cortex, Membrane. Conditions: Not Active = under 50% inhibition at 10 µM.
Series [6] concerns the target Sigma non-opioid intracellular receptor 1 (Homo sapiens, UniProt Q99720). The experiment in a line: DRUGMATRIX: Sigma1 radioligand binding (ligand: [3H] Haloperidol). Format: cell membranes, Jurkat, Membrane. Conditions: Not Active = under 50% inhibition at 10 µM.
The target of series [7] is Kappa-type opioid receptor (Homo sapiens, UniProt P41145). The experiment in a line: DRUGMATRIX: Opiate kappa (OP2, KOP) radioligand binding (ligand: [3H] Diprenorphine). Format: cell membranes, HEK293, Membrane. The settings on record: hek293; Not Active = under 50% inhibition at 10 µM.
Kappa-type opioid receptor, sequence (P41145 whole entry): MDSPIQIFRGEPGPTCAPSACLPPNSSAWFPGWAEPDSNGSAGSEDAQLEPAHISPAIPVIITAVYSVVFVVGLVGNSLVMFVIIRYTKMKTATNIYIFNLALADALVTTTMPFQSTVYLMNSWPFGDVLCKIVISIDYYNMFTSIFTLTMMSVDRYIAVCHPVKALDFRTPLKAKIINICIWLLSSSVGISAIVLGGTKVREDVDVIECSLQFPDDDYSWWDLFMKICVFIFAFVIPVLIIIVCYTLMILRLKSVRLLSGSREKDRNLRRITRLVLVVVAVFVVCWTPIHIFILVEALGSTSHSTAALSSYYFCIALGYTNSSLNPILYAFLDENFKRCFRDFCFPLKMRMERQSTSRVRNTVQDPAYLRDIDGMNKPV

Sigma non-opioid intracellular receptor 1, sequence (Q99720 whole entry): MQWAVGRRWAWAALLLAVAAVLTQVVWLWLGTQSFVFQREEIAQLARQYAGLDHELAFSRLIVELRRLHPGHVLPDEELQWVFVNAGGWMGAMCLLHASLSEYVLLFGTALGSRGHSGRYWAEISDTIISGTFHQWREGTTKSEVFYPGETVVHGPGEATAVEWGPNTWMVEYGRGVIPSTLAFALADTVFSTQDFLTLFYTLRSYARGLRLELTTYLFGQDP

With `COc1ccc2[nH]c([S+]([O-])Cc3ncc(C)c(OC)c3C)nc2c1` (stereo not given) [OMEPRAZOLE], the IC50 entry in series [1], in series [2], in series [3], in series [4], in series [5] and in series [6] (jurkat) was “Not Active” in each case. Besides, the IC50 (commonly the concentration that gives 50% inhibition) in series [7] was “Not Active”. The Ki result in series [1], in series [2], in series [3] and in series [5] was “Not Active” each time.
In the case of `Cc1nccn1CC1CCc2c(c3ccccc3n2C)C1=O` (stereo not given) [ONDANSETRON], the IC50 result in series [1], in series [2], in series [3], in series [4], in series [5] and in series [6] (jurkat) was “Not Active” throughout. Further, the IC50 result in series [7] is on record as “Not Active”. Further, the Ki result in series [1], in series [2], in series [3] and in series [5] was “Not Active” in each case.
In the case of `CCCCOc1ccc(OCCCN2CCOCC2)cc1` [PRAMOXINE], the IC50 entry in series [1] is “Not Active”; in series [2], “Not Active”; in series [3], “Not Active”; in series [4], “Not Active”; in series [5], “Not Active”; in series [6] (read-out: IC50), 0.121 µM. In series [7], the IC50 entry was “Not Active”. Moreover, the Ki (commonly a measure of affinity in units of concentration, obtained from inhibition or displacement) is “Not Active” in series [1]; “Not Active” in series [2]; “Not Active” in series [3]; “Not Active” in series [5]; 0.051 µM in series [6] (read-out: Ki).
`CCN(CC)CCOC(=O)c1ccc(N)cc1` [PROCAINE]: the IC50 result in series [1], in series [2], in series [3], in series [4], in series [5] and in series [6] (jurkat) was “Not Active” in each case. In series [7], the IC50 result is “Not Active”. For the same molecule, the Ki entry in series [1], in series [2], in series [3] and in series [5] was “Not Active” in each case.
Consider `CCCN(CCC)C(=O)C(CCC(=O)O)NC(=O)c1ccccc1` (stereo not given) [PROGLUMIDE], for which the IC50 entry in series [1], in series [2], in series [3], in series [4], in series [5] and in series [6] (jurkat) was “Not Active” each time. Moreover, in series [7], the IC50 entry is given as “Not Active”. For the same molecule, the Ki entry in series [1], in series [2], in series [3] and in series [5] was “Not Active” in each case.
In the case of `NC(=O)c1cnccn1` [PYRAZINAMIDE], the IC50 entry in series [1], in series [2], in series [3], in series [4], in series [5] and in series [6] (jurkat) was “Not Active” each time. The IC50 result in series [7] is given as “Not Active”. The inhibition constant Ki entry in series [1], in series [2], in series [3] and in series [5] was “Not Active” throughout.
In the case of `Cc1cc2cc3c(C)cc(=O)oc3c(C)c2o1` [TRIOXSALEN], the IC50 entry in series [1], in series [2], in series [3], in series [4], in series [5] and in series [6] (jurkat) was “Not Active” throughout. For the same molecule, the IC50 entry in series [7] is “Not Active”. Also, the Ki result in series [1], in series [2], in series [3] and in series [5] was “Not Active” each time.
With `CCCC(CCC)C(=O)O` [VALPROIC ACID], the IC50 result in series [1], in series [2], in series [3], in series [4], in series [5] and in series [6] (jurkat) was “Not Active” throughout. Moreover, in series [7], the IC50 entry is reported as “Not Active”. In addition, the Ki entry in series [1], in series [2], in series [3] and in series [5] was “Not Active” throughout.
With `CCC1=C[C@@H]2CN(C1)Cc1c([nH]c3ccccc13)[C@@](C(=O)OC)(c1cc3c(cc1OC)N(C)[C@H]1[C@@](O)(C(=O)OC)[C@H](OC(C)=O)[C@]4(CC)C=CCN5CC[C@]31[C@@H]54)C2` [VINORELBINE], the IC50 entry in series [1], in series [2], in series [3], in series [4], in series [5] and in series [6] (jurkat) was “Not Active” throughout. Further, the IC50 entry in series [7] is given as “Not Active”. In addition, the Ki result in series [1], in series [2], in series [3] and in series [5] was “Not Active” in each case.
